The record followed here is US20180271930A1, “METHOD FOR RAISING POULTRY” (priority 2015, published 2018).

Assay [1] is described as follows: Examination 7: body weight at 14 days old after GSSG feed until 3, 7 or 14 days old. In kind it is in vivo, broiler chicks. Particulars: n = 12. Here is the method: In each group, 6 males and 6 females were tested. […] The chicks were raised until they became 14 days old, and then, their body weights were measured. The feed composition (ME3,100 kcal/kg, CP21) free of GSSG used in Examination 1 was used for the control group. In the control group the chicks were raised until they became 14 days old and their body weights were measured. In the test groups 1 to 3, a feed composition used as an initial-phase feed composition, for which the level of GSSG to be added was set to 0.05% by mass, is a composition prepared by adding GSSG at 0.05% by mass to a composition (ME3,100 kcal/kg, CP21) containing corn, soybean meal, corn gluten meal, fat and oil, calcium carbonate (powder), tricalcium phosphate, dietary salt, DL-methionine, L-lysine chloride, choline chloride, and vitamins/minerals in accordance with the NRC requirements. […] An ammonium salt was used as GSSG. The GSSG contained 95.6% by mass of oxidized glutathione, and the content of reduced glutathione mixed therein was 0.1% by mass or less.

Assay [2] is described as follows: Examination 6: body weight at 21 days old after GSSG feed (0.01% or 0.05%) for 3 days. In kind it is in vivo, broiler chicks. As to conditions: n = 12. Here is the method: Newly hatched broiler chicks (Ross Breeders Ltd.) were fed with a feed composition containing GSSG at 0.01% by mass or 0.05% by mass for 3 days. […] Three groups, which were a control group, a GSSG addition group (0.01% by mass), and a GSSG addition group (0.05% by mass), were set. In each group, 6 males and 6 females were tested. Chicks received at 0 day old were fed with a test feed composition (initial-phase feed composition) during 72 hours after the receipt. […] Their body weights were measured. A feed composition used as an initial-phase feed composition, for which the level of GSSG was set to 0.01% by mass or […], is a composition prepared by adding GSSG at 0.01% by mass or 0.1% by mass to a composition (ME3,100 kcal/kg, CP21) containing corn, soybean meal, corn gluten meal, fat and oil, calcium carbonate (powder), tricalcium phosphate, dietary salt, DL-methionine, L-lysine chloride, choline chloride, and vitamins/minerals in accordance with the NRC requirements. The feed composition (ME3,100 kcal/kg, CP21) free of GSSG used in Examination 1 was used for the control group. […] An ammonium salt was used as GSSG. The GSSG contained 95.6% by mass of oxidized glutathione, and the content of reduced glutathione mixed therein was 0.1% by mass or less.

The subject of another assay is myostatin. As to the kind of experiment: Examination 3: myostatin mRNA expression in skeletal muscle cells in differentiation medium. The format is cell-based, broiler chicks (Ross 308). As to conditions: 100 μM GSSG in differentiation medium; cells recovered 0, 12, 24 h; FIG. 2B, n=6. An excerpt:
FIGS. 2A to 2D illustrate graphs showing the expression levels of genes related to skeletal muscle cell differentiation upon the addition of GSSG during the skeletal muscle cell differentiation period in Examination 3 (n=6). […] A relative value of the expression level of each factor is expressed as an average±standard deviation of values obtained by dividing the expression levels of each factor by the expression level of RPS9. Each different symbol denotes a significant difference in the […] multiple comparison test (P<0.05). Oxidized glutathione (GSSG) was added to a differentiation-promoting culture medium system of skeletal muscle cells collected from newly hatched broiler chicks (Ross 308, Ross Breeders Ltd.) (under culture conditions simulating the state of skeletal muscle cells of neonatal chicks), phosphorylation of signal factors was analyzed by Western blot, and the differentiation inhibition mechanism was investigated. Expression levels of MyoD, myostatin, IGF-I, and Pax7 as genes involved in myogenesis were determined. Pax7 is a muscle satellite cell marker. […] The expression level of Pax7 was determined by the method described in Examination 1 except that the primer set used herein was a primer set listed in the table below. […] The cells were recovered 0, 12, and 24 hours later, and the expression levels of genes involved in myogenesis were determined. […]

On to oxidized glutathione [GSSG], for which the 14-day-old weight worked out at 393 ± 17 g in assay [1] (0.05% by mass GSSG feed until 3 days old), 391 ± 24 g in assay [1] (0.05% by mass GSSG feed until 7 days old) and 351 ± 47 g in assay [1] (0.05% by mass GSSG feed until 14 days old). Besides, the results for the 21-day-old weight in assay [2] (GSSG 0.01% by mass in feed for 3 days) and in assay [2] (GSSG 0.05% by mass in feed for 3 days) were 961 ± 84 g and 986 ± 67 g, respectively. Further, the “mRNA expression level of myostatin vs control” value with myostatin is reported as “significant decrease”.
